Measured values as given in PMC6941823, “A dispensable paralog of succinate dehydrogenase subunit C mediates standing resistance towards a subclass of SDHI fungicides in Zymoseptoria tritici” (PLoS Pathogens, 2019).
Read-outs that look alike come from different tables or passages of the source.

Experiments:
[1] = biological target: SQR of 06STD024 (SDHC / altC) mitochondria (Zymoseptoria tritici, UniProt A0A1X7RQW2+F9X9V6+F9XH52+O42772); experiment: Succinate-quinone (SQR) SDHI sensitivity assay on purified mitochondria, 06STD024; type: biochemical; details: for RF (resistance factor), 06STD024 (SDHC / altC): IC50 ratio compared to IPO323 values; for IC50: mitochondria of field isolate 06STD024, mean of three ± SD
Sequence of SQR of 06STD024 (SDHC / altC) mitochondria (A0A1X7RQW2 36-181): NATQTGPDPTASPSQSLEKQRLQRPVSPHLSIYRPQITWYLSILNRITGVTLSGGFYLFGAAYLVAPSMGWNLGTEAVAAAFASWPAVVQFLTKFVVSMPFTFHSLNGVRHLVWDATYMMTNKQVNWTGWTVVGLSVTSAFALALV
Sequence of SQR of 06STD024 (SDHC / altC) mitochondria (O42772 19-297): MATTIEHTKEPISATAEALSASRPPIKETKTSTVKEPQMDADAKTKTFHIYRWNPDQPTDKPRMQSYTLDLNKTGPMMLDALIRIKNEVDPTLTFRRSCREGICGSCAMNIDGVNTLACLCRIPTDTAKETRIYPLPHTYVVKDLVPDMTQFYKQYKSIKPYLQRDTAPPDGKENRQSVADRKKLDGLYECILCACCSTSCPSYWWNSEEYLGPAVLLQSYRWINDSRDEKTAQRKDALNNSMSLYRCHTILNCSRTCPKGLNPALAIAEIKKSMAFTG
Sequence of SQR of 06STD024 (SDHC / altC) mitochondria (F9X9V6 1-193): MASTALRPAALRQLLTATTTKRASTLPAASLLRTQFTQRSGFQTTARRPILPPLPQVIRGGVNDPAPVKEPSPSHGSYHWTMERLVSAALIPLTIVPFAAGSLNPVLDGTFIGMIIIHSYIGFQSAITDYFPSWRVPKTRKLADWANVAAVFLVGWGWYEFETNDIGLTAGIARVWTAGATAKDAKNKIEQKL
Sequence of SQR of 06STD024 (SDHC / altC) mitochondria (F9XH52 44-187): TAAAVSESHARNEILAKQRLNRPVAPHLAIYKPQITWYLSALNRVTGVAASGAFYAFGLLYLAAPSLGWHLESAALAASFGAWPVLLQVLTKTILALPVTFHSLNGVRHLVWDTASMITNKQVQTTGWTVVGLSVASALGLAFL
Sequence of SQR of 06STD024 (SDHC / altC) mitochondria (F9WWR1 29-643 partner): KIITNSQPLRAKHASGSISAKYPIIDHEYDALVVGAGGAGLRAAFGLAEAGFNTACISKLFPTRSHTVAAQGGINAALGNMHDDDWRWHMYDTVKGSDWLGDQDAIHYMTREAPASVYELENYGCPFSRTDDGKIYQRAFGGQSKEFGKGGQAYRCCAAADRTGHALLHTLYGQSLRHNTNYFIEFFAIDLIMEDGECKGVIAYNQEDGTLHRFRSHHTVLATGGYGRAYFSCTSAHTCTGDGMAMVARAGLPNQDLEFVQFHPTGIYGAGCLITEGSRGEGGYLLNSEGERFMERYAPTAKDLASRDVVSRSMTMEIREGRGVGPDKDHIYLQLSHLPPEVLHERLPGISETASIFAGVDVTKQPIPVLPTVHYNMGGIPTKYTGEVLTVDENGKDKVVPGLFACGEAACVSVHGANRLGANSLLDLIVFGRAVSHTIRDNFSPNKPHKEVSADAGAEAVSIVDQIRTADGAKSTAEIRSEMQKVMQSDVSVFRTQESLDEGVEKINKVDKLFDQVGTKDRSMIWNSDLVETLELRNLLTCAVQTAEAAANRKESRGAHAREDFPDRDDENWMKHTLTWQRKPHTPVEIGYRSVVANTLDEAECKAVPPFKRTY
Experimental: (§1) Succinate-ubiquinone oxidoreductase (SQR) inhibition assays were performed on mitochondrial extracts from a panel of strains that were (i) either carrying a unique C-subunit encoding gene (ZtSDHC1, ZtSDHC1_A84I or Zt-SDHC3), or (ii) carrying two C-subunit encoding genes ZtSDHC1 and ZtSDHC3 (Table 1).
(§2) Biomass production, mitochondrial extraction and purification were performed as described in [14]. Succinate: ubiquinone/DCPIP sensitivity tests were performed as described in [14] with minor modification.

[2] = test system: Zymoseptoria tritici field and genetically modified strains; experiment: Liquid culture assay for fungicide sensitivity determination; type: cell-based; details: liquid culture sensitivity
Experimental: Sensitivity towards commercial fungicides was determined for a set of 99 SHA-SDHI-naïve Z. tritici field isolates sampled in Europe between 2006 and 2009. The EC50 of these isolates was determined in liquid growth assays and the data obtained compared for each possible pair of SDHI fungicides (cross-resistance (XR) plots, Fig 1). […] Comparative succinate-quinone reductase (SQR) enzyme inhibition tests were performed with mitochondria extracted from a panel of SHA-SDHIs tolerant and sensitive isolates.
In order to characterize in more depth the mechanisms driving sensitivity differences across the isolates, a subset of eight isolates carrying the ZtSDHC3 gene was analyzed for their sensitivity to SDHIs, alt-SDHC expression and splicing patterns. Liquid culture growth sensitivity tests were performed to determine EC50s for this set of isolates towards a wide range of commercial and research SDHIs (S5 Table).
Pre-culture of the inoculum and fungicide sensitivity tests were performed following previously described procedures. Different ranges of inhibitor concentrations were used for population monitoring and for the detailed phenotyping of a selected set of individual field isolates and genetically modified strains. For fungicide sensitivity monitoring of European field populations, final inhibitors concentrations were between 100 mg.L^-1 and 0.0001 mg.L^-1 with uniform 10x dilution steps (7 inhibitor concentrations + DMSO control). For refined sensitivity analysis of a smaller panel of isolates final inhibitor concentrations ranged between 0.5 mM and 0.47 nM with uniform 4x dilution factor steps (11 inhibitor concentrations+ DMSO control).

[3] = biological target: altC-SQR (altC) of D024 SDHC1 KO mitochondria (Zymoseptoria tritici, UniProt A0A1X7RQW2+F9X9V6+O42772); experiment: Succinate-quinone (SQR) SDHI sensitivity assay on purified mitochondria, 06STD024 SDHC1 KO; type: biochemical; details: for RF (resistance factor), D024 SDHC1 KO (altC): IC50 ratio compared to IPO323 values; for IC50: mitochondria of 06STD024 ZtSDHC1 deletion mutant (pure altC-SQR), mean of three ± SD
Sequence of altC-SQR (altC) of D024 SDHC1 KO mitochondria (A0A1X7RQW2 36-181): as the sequence (A0A1X7RQW2 36-181) above
Sequence of altC-SQR (altC) of D024 SDHC1 KO mitochondria (O42772 20-297): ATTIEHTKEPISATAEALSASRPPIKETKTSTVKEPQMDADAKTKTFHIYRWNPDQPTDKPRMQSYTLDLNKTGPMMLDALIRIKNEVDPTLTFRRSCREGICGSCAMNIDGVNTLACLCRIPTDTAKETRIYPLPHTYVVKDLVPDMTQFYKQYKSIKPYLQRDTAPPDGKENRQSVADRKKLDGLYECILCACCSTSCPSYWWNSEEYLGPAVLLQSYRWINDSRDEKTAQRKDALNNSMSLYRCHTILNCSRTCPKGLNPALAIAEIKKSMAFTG
Sequence of altC-SQR (altC) of D024 SDHC1 KO mitochondria (F9X9V6 1-193): as the sequence (F9X9V6 1-193) above
Sequence of altC-SQR (altC) of D024 SDHC1 KO mitochondria (F9WWR1 41-643 partner): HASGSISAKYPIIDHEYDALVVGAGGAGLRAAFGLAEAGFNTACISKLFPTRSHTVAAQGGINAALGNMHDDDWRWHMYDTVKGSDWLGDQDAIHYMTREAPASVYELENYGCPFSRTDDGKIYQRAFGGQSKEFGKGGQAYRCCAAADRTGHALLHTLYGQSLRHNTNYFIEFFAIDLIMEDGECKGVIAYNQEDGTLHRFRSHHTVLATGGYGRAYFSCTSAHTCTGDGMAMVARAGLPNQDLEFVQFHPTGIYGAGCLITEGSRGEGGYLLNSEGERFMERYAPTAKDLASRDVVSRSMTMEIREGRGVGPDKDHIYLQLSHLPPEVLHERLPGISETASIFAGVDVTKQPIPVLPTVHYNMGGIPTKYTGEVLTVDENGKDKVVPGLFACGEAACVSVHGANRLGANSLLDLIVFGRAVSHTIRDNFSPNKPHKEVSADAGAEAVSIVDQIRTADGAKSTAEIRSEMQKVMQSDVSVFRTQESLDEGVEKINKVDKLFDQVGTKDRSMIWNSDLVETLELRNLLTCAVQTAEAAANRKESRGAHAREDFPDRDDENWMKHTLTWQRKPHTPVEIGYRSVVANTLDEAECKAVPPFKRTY
Experimental: as §1, §2

[4] = biological target: C_A84I-SQR (SDHC_A84I), IPO323_Flu21 mitochondria (Zymoseptoria tritici, UniProt F9X9V6+F9XH52+O42772, A84I); experiment: Succinate-quinone (SQR) SDHI sensitivity assay on purified mitochondria, IPO323_Flu21; type: biochemical
Experimental: as §1
(§3) Biomass production, mitochondrial extraction and purification were performed as described in [14]. Succinate: ubiquinone/DCPIP sensitivity tests were performed as described in [14] with minor modification. The different mitochondrial suspensions were adjusted to similar initial velocity (1 OD595nm hour^-1) and inhibitor concentrations ranged between 0.047nM and 50μM with uniform 4x dilution steps (11 concentrations + DMSO control). Calculated absorbance slopes (OD/min) were used for IC50 calculations using GraphPad Prism 6.07 software non-linear curve fitting against log inhibitor concentrations.

[5] = biological target: WT-SQR (SDHC), IPO323 mitochondria (Zymoseptoria tritici, UniProt F9X9V6+F9XH52+O42772); experiment: Succinate-quinone (SQR) SDHI sensitivity assay on purified mitochondria, IPO323; type: biochemical
Experimental: as §1, §3

[6] = test system: SQR (SDHC / altC) of IPO323 pTet::SDHC3 transformant, induced; experiment: Succinate-quinone (SQR) SDHI sensitivity assay on purified mitochondria, IPO323 pTet::SDHC3 induced; type: biochemical, Zymoseptoria tritici; details: for IC50: IPO323 pTet::SDHC3 transformant grown in the absence of doxycycline, mean of three ± SD
Experimental: as §1, §2

[7] = biological target: SQR (SDHC / altC) of IPO323 pTet::SDHC3 transformant, repressed (Zymoseptoria tritici, UniProt A0A1X7RQW2+F9X9V6+F9XH52+O42772); experiment: Succinate-quinone (SQR) SDHI sensitivity assay on purified mitochondria, IPO323 pTet::SDHC3 repressed; type: biochemical; details: for RF (resistance factor), pTet Repressed (SDHC / altC): IC50 ratio compared to IPO323 values; for IC50: IPO323 pTet::SDHC3 transformant grown in presence of 30 mg.L^-1 doxycycline, mean of three ± SD
Experimental: as §1, §2

[8] = biological target: SQR (SDHC) of D024 SDHC3 KO mitochondria (Zymoseptoria tritici, UniProt F9X9V6+F9XH52+O42772); experiment: Succinate-quinone (SQR) SDHI sensitivity assay on purified mitochondria, 06STD024 SDHC3 KO; type: biochemical; details: for RF (resistance factor), D024 SDHC3 KO (SDHC): IC50 ratio compared to IPO323 values; for IC50: mitochondria of 06STD024 ZtSDHC3 deletion mutant, mean of three ± SD
Sequence of SQR (SDHC) of D024 SDHC3 KO mitochondria (F9XH52 44-187): as the sequence (F9XH52 44-187) above
Sequence of SQR (SDHC) of D024 SDHC3 KO mitochondria (O42772 19-297): as the sequence (O42772 19-297) above
Sequence of SQR (SDHC) of D024 SDHC3 KO mitochondria (F9X9V6 1-193): as the sequence (F9X9V6 1-193) above
Sequence of SQR (SDHC) of D024 SDHC3 KO mitochondria (F9WWR1 29-643 partner): as the sequence (F9WWR1 29-643 partner) above
Experimental: as §1, §3

[9] = IC50 ratio compared to IPO323 values

Cn1cc(C(=O)Nc2cccc3c2[C@@H]2CC[C@H]3C2=C(Cl)Cl)c(C(F)F)n1 (racemic) [Benzovindiflupyr]
RF (resistance factor), 06STD024 (SDHC / altC) [1]: 0.8 | IC50 [1]: 0.5 ± 0.17 nM | EC50 ([2]; strain 06STD024, read-out: EC50 (nM) Mean): 17 nM | EC50 ([2]; strain 07STGB009, read-out: EC50 (nM) Mean): 15 nM | EC50 ([2]; strain 09STD041, read-out: EC50 (nM) Mean): 54 nM | EC50 ([2]; strain 09STD053, read-out: EC50 (nM) Mean): 88 nM | EC50 ([2]; strain 09STF011, read-out: EC50 (nM) Mean): 96 nM | EC50 ([2]; strain 09STF037, read-out: EC50 (nM) Mean): 54 nM | EC50 ([2]; strain 09STF112, read-out: EC50 (nM) Mean): 204 nM | EC50 ([2]; strain 09STIR20.3, read-out: EC50 (nM) Mean): 147 nM | EC50 ([2]; strain Flu21 (SDHC1_A84I), read-out: EC50 (nM) Mean): 927 nM | EC50 ([2]; strain IPO323, read-out: EC50 (nM) Mean): 39 nM | EC50 ([2]; strain IPO94269, read-out: EC50 (nM) Mean): 108 nM | EC50 ([2]; strain KO_SDHC1_T1, read-out: EC50 (nM) Mean): 59 nM | EC50 ([2]; strain KO_SDHC1_T3, read-out: EC50 (nM) Mean): 40 nM | EC50 ([2]; strain KO_SDHC3_T4, read-out: EC50 (nM) Mean): 93 nM | EC50 ([2]; strain KO_SDHC3_T13, read-out: EC50 (nM) Mean): 90 nM | EC50 ([2]; strain pTet::SDHC3_I78A_T1, read-out: EC50 (nM) Mean): 28 nM | EC50 ([2]; strain pTet::SDHC3_I78A_T5, read-out: EC50 (nM) Mean): 87 nM | EC50 ([2]; strain pTet::SDHC3_I78A_T15, read-out: EC50 (nM) Mean): 47 nM | EC50 ([2]; strain pTet::SDHC3_I78A_T35, read-out: EC50 (nM) Mean): 20 nM | EC50 ([2]; strain pTet::SDHC3_T1, read-out: EC50 (nM) Mean): 40 nM | EC50 ([2]; strain pTet::SDHC3_T2, read-out: EC50 (nM) Mean): 44 nM | EC50 ([2]; strain pTet::SDHC3_T3, read-out: EC50 (nM) Mean): 30 nM | EC50 ([2]; strain pTet::SDHC3_T7, read-out: EC50 (nM) Mean): 50 nM | RF (resistance factor), D024 SDHC1 KO (altC) [3]: 0.9 | IC50 [3]: 0.6 ± 0.05 nM | RF (resistance factor), IPO323_Flu21 (SDHC_A84I) [4, 9]: 1.4 | IC50 ([4]; mitochondria of UV mutant IPO323_Flu21, mean of three ± SD): 1 ± 0.2 nM | IC50 ([5]; mitochondria of IPO323, mean of three determinations ± SD, read-out: Succinate-quinone IC50, IPO323 (SDHC)): 0.7 ± 0.2 nM | RF (resistance factor), pTet Induced (SDHC / altC) [6, 9]: 0.8 | IC50 [6]: 0.5 ± 0.09 nM | RF (resistance factor), pTet Repressed (SDHC / altC) [7]: 0.8 | IC50 [7]: 0.5 ± 0.03 nM | RF (resistance factor), D024 SDHC3 KO (SDHC) [8]: 0.8 | IC50 [8]: 0.6 ± 0.11 nM

CC1=C(C(=O)Nc2ccccc2)SCCO1 [Carboxin]
RF (resistance factor), 06STD024 (SDHC / altC) [1]: 0.8 | IC50 [1]: 731 ± 84.4 nM | EC50 ([2]; Zymoseptoria tritici, read-out: EC50 (nM) Mean, strain 06STD024): 4620 nM | EC50 ([2]; Zymoseptoria tritici, read-out: EC50 (nM) Mean, strain 07STGB009): 6340 nM | EC50 ([2]; Zymoseptoria tritici, read-out: EC50 (nM) Mean, strain 09STD041): 13200 nM | EC50 ([2]; Zymoseptoria tritici, read-out: EC50 (nM) Mean, strain 09STD053): 9370 nM | EC50 ([2]; Zymoseptoria tritici, read-out: EC50 (nM) Mean, strain 09STF011): 9620 nM | EC50 ([2]; Zymoseptoria tritici, read-out: EC50 (nM) Mean, strain 09STF037): 6840 nM | EC50 ([2]; Zymoseptoria tritici, read-out: EC50 (nM) Mean, strain 09STF112): 6780 nM | EC50 ([2]; Zymoseptoria tritici, read-out: EC50 (nM) Mean, strain 09STIR20.3): 13200 nM | EC50 ([2]; Zymoseptoria tritici, read-out: EC50 (nM) Mean, strain Flu21 (SDHC1_A84I)): 10200 nM | EC50 ([2]; Zymoseptoria tritici, read-out: EC50 (nM) Mean, strain IPO323): 8550 nM | EC50 ([2]; Zymoseptoria tritici, read-out: EC50 (nM) Mean, strain IPO94269): 10800 nM | EC50 ([2]; Zymoseptoria tritici, read-out: EC50 (nM) Mean, strain KO_SDHC1_T1): 10400 nM | EC50 ([2]; Zymoseptoria tritici, read-out: EC50 (nM) Mean, strain KO_SDHC1_T3): 11200 nM | EC50 ([2]; Zymoseptoria tritici, read-out: EC50 (nM) Mean, strain KO_SDHC3_T4): 20600 nM | EC50 ([2]; Zymoseptoria tritici, read-out: EC50 (nM) Mean, strain KO_SDHC3_T13): 19600 nM | EC50 ([2]; Zymoseptoria tritici, read-out: EC50 (nM) Mean, strain pTet::SDHC3_I78A_T1): 7520 nM | EC50 ([2]; Zymoseptoria tritici, read-out: EC50 (nM) Mean, strain pTet::SDHC3_I78A_T5): 12700 nM | EC50 ([2]; Zymoseptoria tritici, read-out: EC50 (nM) Mean, strain pTet::SDHC3_I78A_T15): 8080 nM | EC50 ([2]; Zymoseptoria tritici, read-out: EC50 (nM) Mean, strain pTet::SDHC3_I78A_T35): 15700 nM | EC50 ([2]; Zymoseptoria tritici, read-out: EC50 (nM) Mean, strain pTet::SDHC3_T1): 6980 nM | EC50 ([2]; Zymoseptoria tritici, read-out: EC50 (nM) Mean, strain pTet::SDHC3_T2): 7420 nM | EC50 ([2]; Zymoseptoria tritici, read-out: EC50 (nM) Mean, strain pTet::SDHC3_T3): 6930 nM | EC50 ([2]; Zymoseptoria tritici, read-out: EC50 (nM) Mean, strain pTet::SDHC3_T7): 8460 nM | RF (resistance factor), D024 SDHC1 KO (altC) [3]: 0.9 | IC50 [3]: 865 ± 215 nM | IC50 [5]: 969 ± 182 nM | IC50 [6]: 762 ± 164 nM | RF (resistance factor), pTet Repressed (SDHC / altC) [7]: 1.2 | IC50 [7]: 1200 ± 85 nM | RF (resistance factor), D024 SDHC3 KO (SDHC) [8]: 0.8 | IC50 [8]: 775 ± 94.5 nM
